Data set [1] has as its system Smn protein in SMA patient fibroblast cells (GM03813). Briefly: Smn protein assay in cultured cells (SMN HTRF). The class given is cell-based, human. To be noted: SMA patient fibroblast cells, 48 hours; for EC1.5x for Smn protein expression: 7-point concentration curve, SMN HTRF, concentration producing 1.5 times Smn protein vs DMSO vehicle control; for maximum fold (Fold) increase of Smn protein: 7-point concentration data, fold relative to vehicle control. The gist of the method:
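Smn protein abundance in treated SMA fibroblasts was measured by HTRF after 48 h compound exposure. The reported EC1.5× is the concentration producing 1.5 times vehicle Smn levels.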
On the technique in general: TR-FRET usually uses a lanthanide donor and a delayed reading to cut background.

Data set [2] deals with SMN2 minigene mRNA (SMN2-A minigene) in HEK293H cells. The experiment in a line: SMN2 minigene mRNA splicing RT-qPCR assay in cultured cells. The class given is cell-based, human. The note with it: Homo sapiens, HEK293-H; concentration increasing full length SMN2 mRNA 1.5-fold relative to vehicle-treated cells; HEK293H cells with SMN2-A minigene, 24 hours, 7-point concentration data; read-out: EC1.5x for production of full length SMN2 mRNA. The gist of the method:
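Potency reflects the concentration that lifts full-length SMN2 minigene mRNA 1.5-fold above vehicle in stably transfected HEK293H cells after 24 h of treatment. Transcript abundance came from RT-qPCR as (1+E)^−Ct, normalized to GAPDH; endogenous SMN1/SMN2 are not detected.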
In general terms: Quantitative PCR measures a nucleic acid by following its amplification.

This note sets out measurements from patent US11753407B2, “Compounds for treating spinal muscular atrophy” (PTC Therapeutics, Inc., priority 2012, dated 2023).

The melting point is the temperature of the solid-liquid transition.

With `Cc1nc2ccc(-c3cc(=O)n4cc(C5CCNCC5)ccc4n3)cc2s1` [Compound 424, 2-(2-methyl-1,3-benzothiazol-6-yl)-7-(piperidin-4-yl)-4H-pyrido[1,2-a]pyrimidin-4-one], the melting point fell in the range of 222 to 224 °C. Besides, in data set [1], the “EC1.5x for Smn protein expression” value is “**** (an EC1.5x≤0.3 μM is indicated by four stars (****))” and the “maximum fold (Fold) increase of Smn protein” value (shortened to “maximum fold (Fold) increase”) is “***** (a fold increase >1.65 is indicated by five stars (*****))”. For the same molecule, the EC (1.5-fold increase) in data set [2] is under 0.1 µM.
Take `O=c1cc(-c2cc(F)cc(Cl)c2)nc2ccc(N3CCNCC3)cn12` [Compound 190, 2-(3-chloro-5-fluorophenyl)-7-(piperazin-1-yl)-4H-pyrido[1,2-a]pyrimidin-4-one]: the melting point lay within 180 to 184 °C. In addition, in data set [1], the “EC1.5x for Smn protein expression” value was “** (an EC1.5× between >1 μM and ≤3 μM is indicated by two stars (**))”; the “maximum fold (Fold) increase” value was “**** (a fold increase between >1.5 and ≤1.65 is indicated by four stars (****))”. Moreover, in data set [2], the EC (1.5-fold increase) lay within 0.3 to 1 µM.
With `Cc1cn2cc(-c3cc(=O)n4cc(N5CCCN(C)CC5)ccc4n3)cc(F)c2n1` [Compound 211, 2-(8-fluoro-2-methylimidazo[1,2-a]pyridin-6-yl)-7-(4-methyl-1,4-diazepan-1-yl)-4H-pyrido[1,2-a]pyrimidin-4-one], the melting point was in the range of 262 to 266 °C. In data set [1], the “EC1.5x for Smn protein expression” value is listed as “**** (an EC1.5x≤0.3 μM is indicated by four stars (****))”; the “maximum fold (Fold) increase” value is “**** (a fold increase between >1.5 and ≤1.65 is indicated by four stars (****))”. The EC (1.5-fold increase) in data set [2] is under 0.1 µM.
As to `COc1ccc(-c2cc(=O)n3cc(N4CC[C@H](N)C4)ccc3n2)cc1OC` [Compound 159, 7-[(3S)-3-aminopyrrolidin-1-yl]-2-(3,4-dimethoxyphenyl)-4H-pyrido[1,2-a]pyrimidin-4-one], the melting point was in the range of 148 to 151 °C. The “maximum fold (Fold) increase” value in data set [1] was “*** (a fold increase between >1.35 and ≤1.5 is indicated by three stars (***))”. Moreover, in data set [2], the EC (1.5-fold increase) is 1 to 3 µM.
Molecule `CCN1CCN(c2cn3c(=O)cc(-c4ccc5nn(C)cc5c4)nc3cn2)CC1` [Compound 590, 7-(4-ethylpiperazin-1-yl)-2-(2-methyl-2H-indazol-5-yl)-4H-pyrazino[1,2-a]pyrimidin-4-one] had a melting point of 214 to 216 °C. In data set [1], the “EC1.5x for Smn protein expression” value is “** (an EC1.5× between >1 μM and ≤3 μM is indicated by two stars (**))”; the “maximum fold (Fold) increase” value is “**** (a fold increase between >1.5 and ≤1.65 is indicated by four stars (****))”. Further, the EC (1.5-fold increase) in data set [2] is 0.3 to 1 µM.
Take `Cc1cc(C2CCNCC2)cn2c(=O)cc(-c3ccc4nn(C)cc4c3)nc12` [Compound 721, 9-methyl-2-(2-methyl-2H-indazol-5-yl)-7-(piperidin-4-yl)-4H-pyrido[1,2-a]pyrimidin-4-one]: the melting point was determined as 211 °C. In data set [1], the “EC1.5x for Smn protein expression” value was “**** (an EC1.5x≤0.3 μM is indicated by four stars (****))” and the “maximum fold (Fold) increase” value is “***** (a fold increase >1.65 is indicated by five stars (*****))”. For the same molecule, the EC (1.5-fold increase) in data set [2] was under 0.1 µM.
`CCc1nc(C)cn2nc(-c3cc(=O)n4cc(N5CCN(CCF)CC5)ccc4n3)cc12` [Compound 664, 2-(4-ethyl-6-methylpyrazolo[1,5-a]pyrazin-2-yl)-7-[4-(2-fluoroethyl)piperazin-1-yl]-4H-pyrido[1,2-a]pyrimidin-4-one] had a melting point of 245 to 247 °C. In data set [1], the “EC1.5x for Smn protein expression” value was “*** (an EC1.5× between >0.3 μM and ≤1 μM is indicated by three stars (***))”; the “maximum fold (Fold) increase” value was “***** (a fold increase >1.65 is indicated by five stars (*****))”. In addition, the EC (1.5-fold increase) in data set [2] fell in the range of 0.3 to 1 µM.
On to `CCN1CC=C(c2ccc3nc(-c4ccc5nc(C)cn5c4)cc(=O)n3c2)CC1` [Compound 431, 7-(1-ethyl-1,2,3,6-tetrahydropyridin-4-yl)-2-(2-methylimidazo[1,2-a]pyridin-6-yl)-4H-pyrido[1,2-a]pyrimidin-4-one], for which the melting point was in the range of 220 to 223 °C. Besides, in data set [1], the “EC1.5x for Smn protein expression” value is recorded as “**** (an EC1.5x≤0.3 μM is indicated by four stars (****))” and the “maximum fold (Fold) increase” value was “***** (a fold increase >1.65 is indicated by five stars (*****))”. Further, in data set [2], the EC (1.5-fold increase) was under 0.1 µM.
Take `Cc1cn2cc(-c3cc(=O)n4cc(N5CCN[C@@H](C)C5)ccc4n3)nc2c(C)n1` [Compound 119, 2-(6,8-dimethylimidazo[1,2-a]pyrazin-2-yl)-7-[(3S)-3-methylpiperazin-1-yl]-4H-pyrido[1,2-a]pyrimidin-4-one]: the melting point was in the range of 202 to 208 °C. Further, in data set [1], the “EC1.5x for Smn protein expression” value is “*** (an EC1.5× between >0.3 μM and ≤1 μM is indicated by three stars (***))”; the “maximum fold (Fold) increase” value was “***** (a fold increase >1.65 is indicated by five stars (*****))”. Moreover, in data set [2], the EC (1.5-fold increase) lay in the range of 0.1 to 0.3 µM.
As for `Cc1cn2cc(-c3cc(=O)n4cc(N5CCN[C@@H](C)C5)ccc4n3)nc2cn1` [Compound 75, 2-(6-methylimidazo[1,2-a]pyrazin-2-yl)-7-[(3S)-3-methylpiperazin-1-yl]-4H-pyrido[1,2-a]pyrimidin-4-one], the melting point fell in the range of 235 to 238 °C. Besides, in data set [1], the “EC1.5x for Smn protein expression” value is reported as “**** (an EC1.5x≤0.3 μM is indicated by four stars (****))” and the “maximum fold (Fold) increase” value is on record as “***** (a fold increase >1.65 is indicated by five stars (*****))”. Further, the EC (1.5-fold increase) in data set [2] was under 0.1 µM.
As to `COc1ccc(-c2cc(=O)n3cc(N4CCNCC4)ccc3n2)cc1C` [Compound 149, 2-(4-methoxy-3-methylphenyl)-7-(piperazin-1-yl)-4H-pyrido[1,2-a]pyrimidin-4-one], the melting point lay within 198 to 203 °C. Also, the “maximum fold (Fold) increase” value in data set [1] is “** (a fold increase between >1.2 and ≤1.35 is indicated by two stars (**))”. The EC (1.5-fold increase) in data set [2] was 0.3 to 1 µM.
Turning to `Cc1cn2nc(-c3cc(=O)n4cc(CCCN(C)C)ccc4n3)cc2c(C)n1` [Cpd 769, 7-[3-(dimethylamino)propyl]-2-(4,6-dimethylpyrazolo[1,5-a]pyrazin-2-yl)-4H-pyrido[1,2-a]pyrimidin-4-one], the melting point is 136 to 138 °C. For the same molecule, in data set [1], the “EC1.5x for Smn protein expression” value was “*** (an EC1.5× between >0.3 μM and ≤1 μM is indicated by three stars (***))”; the “maximum fold (Fold) increase” value is “***** (a fold increase >1.65 is indicated by five stars (*****))”. For the same molecule, the EC (1.5-fold increase) in data set [2] was 0.1 to 0.3 µM.
Consider `COc1ccc(-c2cc(=O)n3cc(N4CCNCC4)ccc3n2)cc1F` [Cpd 72, 2-(3-fluoro-4-methoxyphenyl)-7-(piperazin-1-yl)-4H-pyrido[1,2-a]pyrimidin-4-one], for which the melting point fell in the range of 191 to 195 °C. Besides, in data set [1], the “EC1.5x for Smn protein expression” value is “*** (an EC1.5× between >0.3 μM and ≤1 μM is indicated by three stars (***))”; the “maximum fold (Fold) increase” value was “*** (a fold increase between >1.35 and ≤1.5 is indicated by three stars (***))”. Also, in data set [2], the EC (1.5-fold increase) was under 0.1 µM.
With `COc1ccc(-c2cc(=O)n3cc(N4CCN(O)CC4)ccc3n2)cc1OC` [Compound 146, 2-(3,4-dimethoxyphenyl)-7-(4-hydroxypiperazin-1-yl)-4H-pyrido[1,2-a]pyrimidin-4-one], the melting point lay in the range of 202 to 204 °C. The “maximum fold (Fold) increase” value in data set [1] is “* (A maximum fold increase of ≤1.2 is indicated by one star (*))”. Besides, the EC (1.5-fold increase) in data set [2] was in the range of 1 to 3 µM.
In the case of `COc1ccc(-c2cc(=O)n3cc(C4=CCN(C(C)C)CC4)ccc3n2)cc1OC` [Compound 363, 2-(3,4-dimethoxyphenyl)-7-[1-(propan-2-yl)-1,2,3,6-tetrahydropyridin-4-yl]-4H-pyrido[1,2-a]pyrimidin-4-one], the melting point lay in the range of 116 to 118 °C. Further, the “maximum fold (Fold) increase” value in data set [1] was “** (a fold increase between >1.2 and ≤1.35 is indicated by two stars (**))”. The EC (1.5-fold increase) in data set [2] was in the range of 0.3 to 1 µM.
`CNCCNc1ccc2nc(-c3ccc(OC)c(OC)c3)cc(=O)n2c1` [Compound 181, 2-(3,4-dimethoxyphenyl)-7-{[2-(methylamino)ethyl]amino}-4H-pyrido[1,2-a]pyrimidin-4-one] showed a melting point of 135 to 138 °C. Moreover, the “maximum fold (Fold) increase” value in data set [1] is on record as “* (A maximum fold increase of ≤1.2 is indicated by one star (*))”. In addition, the EC (1.5-fold increase) in data set [2] lay within 1 to 3 µM.
As for `COc1ccc(-c2cc(=O)n3cc(N4CCC(N(C)C)CC4)ccc3n2)cc1OC` [Compound 148, 2-(3,4-dimethoxyphenyl)-7-[4-(dimethylamino)piperidin-1-yl]-4H-pyrido[1,2-a]pyrimidin-4-one], the melting point lay within 158 to 161 °C. Further, in data set [1], the “EC1.5x for Smn protein expression” value is “** (an EC1.5× between >1 μM and ≤3 μM is indicated by two stars (**))”; the “maximum fold (Fold) increase” value is “*** (a fold increase between >1.35 and ≤1.5 is indicated by three stars (***))”. The EC (1.5-fold increase) in data set [2] is 0.1 to 0.3 µM.
